Earlier results, collected in US4833164A (E. I. Du Pont de Nemours and Company, priority 1986, dated 1989).

Test system: lipoxygenase
Details: Nakadate et al.; Van Wauwe and Goossens; Panganamala et al.

## Oc1cccc2ccccc12 [Example 1-naphthol, 1-naphthol]
  lipoxygenase inhibitor (literature): lipoxygenase inhibitor
